SMILES strings stand for the structures.

The target of the assay is T1, BdRppH (Bdellovibrio bacteriovorus, UniProt Q6MPX4).
T1 sequence (Q6MPX4 1-153): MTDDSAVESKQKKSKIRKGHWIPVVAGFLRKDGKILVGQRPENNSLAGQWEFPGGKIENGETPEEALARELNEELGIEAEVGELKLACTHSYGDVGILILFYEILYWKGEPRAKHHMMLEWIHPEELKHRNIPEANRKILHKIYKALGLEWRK
Nature of the assay: X-ray crystal structure. The format is binding. The note with it: deposited complex; not described in text.

As for `Nc1nc2c(ncn2[C@H]2C[C@H](O)[C@@H](COP(=O)(O)OP(=O)(O)OP(=O)(O)O)O2)c(=O)[nH]1` [dGTP], the X-ray crystal structure result is on record as “RNA pyrophosphohydrolase in complex with dGTP”.
